Reference: the NIST ThermoML archive (doi:10.1021/je0340809)

Assay: xn = mol fraction of the nth substance listed
Settings: 101.3 kPa, Liquid

O=C1CCCN1 [2-pyrrolidinone] + O
Settings | mass density [kg/m3] | speed of sound [m/s] | viscosity [mPa·s]
298.15 K, x2 = 0.0549 | 1106.53 | 1637.8 | 13.02
298.15 K, x2 = 0.1506 | 1105.77 | 1641.1 | 12.29
298.15 K, x2 = 0.2552 | 1104.43 | 1662 | 11.77
298.15 K, x2 = 0.35 | 1102.41 | 1691.1 | 11.32
298.15 K, x2 = 0.4496 | 1099.53 | 1711.7 | 10.63
298.15 K, x2 = 0.5 | 1097.71 | 1717.9 | 10.13
298.15 K, x2 = 0.5566 | 1095.2 | 1723.5 | 9.408
298.15 K, x2 = 0.6422 | 1089.78 | 1728.3 | 8.014
298.15 K, x2 = 0.7532 | 1077.07 | 1730.9 | 5.772
298.15 K, x2 = 0.8516 | 1056.03 | 1715.4 | 3.645
298.15 K, x2 = 0.8714 | 1050.24 | 1704.6 | 3.231
298.15 K, x2 = 0.8856 | 1045.71 | 1694.1 | 2.94
298.15 K, x2 = 0.9 | 1040.8 | 1681 | 2.651
298.15 K, x2 = 0.9249 | 1031.48 | 1650.9 | 2.171
298.15 K, x2 = 0.9369 | 1026.61 | 1632.7 | 1.948
298.15 K, x2 = 0.9526 | 1019.88 | 1605.5 | 1.667
298.15 K, x2 = 0.9651 | 1014.21 | 1580.7 | 1.451
298.15 K, x2 = 0.9748 | 1009.64 | 1559.8 | 1.29
298.15 K, x2 = 0.9906 | 1001.87 | 1522.6 | 1.036
308.15 K, x2 = 0.0549 | 1098.69 | 1609.2 | 8.624
308.15 K, x2 = 0.1506 | 1097.66 | 1618.7 | 8.126
308.15 K, x2 = 0.2552 | 1095.98 | 1635.9 | 7.761
308.15 K, x2 = 0.35 | 1093.81 | 1657.3 | 7.452
308.15 K, x2 = 0.4496 | 1090.94 | 1679 | 6.988
308.15 K, x2 = 0.5 | 1089.17 | 1688.1 | 6.657
308.15 K, x2 = 0.5566 | 1086.76 | 1696.7 | 6.188
308.15 K, x2 = 0.6422 | 1081.57 | 1706.4 | 5.289
308.15 K, x2 = 0.7532 | 1069.46 | 1711.6 | 3.853
308.15 K, x2 = 0.8516 | 1049.57 | 1695.1 | 2.489
308.15 K, x2 = 0.8714 | 1044.11 | 1686.1 | 2.224
308.15 K, x2 = 0.8856 | 1039.85 | 1677.9 | 2.038
308.15 K, x2 = 0.9 | 1035.22 | 1667.7 | 1.852
308.15 K, x2 = 0.9249 | 1026.46 | 1645 | 1.544
308.15 K, x2 = 0.9369 | 1021.88 | 1631.3 | 1.401
308.15 K, x2 = 0.9526 | 1015.55 | 1610.1 | 1.22
308.15 K, x2 = 0.9651 | 1010.22 | 1590.4 | 1.082
308.15 K, x2 = 0.9748 | 1005.91 | 1573.1 | 0.977
308.15 K, x2 = 0.9906 | 995.75 | 1540.9 | 0.812
318.15 K, x2 = 0.0549 | 1090.54 | 1570 | 6.104
318.15 K, x2 = 0.1506 | 1089.51 | 1576.7 | 5.778
318.15 K, x2 = 0.2552 | 1087.87 | 1589.9 | 5.543
318.15 K, x2 = 0.35 | 1085.69 | – | 5.344
318.15 K, x2 = 0.4496 | 1082.75 | – | 5.034
318.15 K, x2 = 0.5 | 1080.94 | – | 4.807
318.15 K, x2 = 0.5566 | 1078.51 | 1650.3 | 4.48
318.15 K, x2 = 0.6422 | 1073.38 | 1663.9 | 3.845
318.15 K, x2 = 0.7532 | 1061.72 | 1678.2 | 2.823
318.15 K, x2 = 0.8516 | 1042.81 | 1675 | 1.852
318.15 K, x2 = 0.8714 | 1037.63 | 1669.5 | 1.663
318.15 K, x2 = 0.8856 | 1033.59 | 1664 | 1.53
318.15 K, x2 = 0.9 | 1029.21 | 1656.8 | 1.398
318.15 K, x2 = 0.9249 | 1020.9 | 1639.6 | 1.179
318.15 K, x2 = 0.9369 | 1016.57 | 1628.8 | 1.078
318.15 K, x2 = 0.9526 | 1010.57 | 1611.8 | 0.95
318.15 K, x2 = 0.9651 | 1005.52 | 1595.5 | 0.851
318.15 K, x2 = 0.9748 | 1001.44 | 1581.1 | 0.778
318.15 K, x2 = 0.9906 | 995.2 | 1553.7 | 0.662
328.15 K, x2 = 0.0549 | 1082.33 | 1556 | 4.562
328.15 K, x2 = 0.1506 | 1081.2 | 1562.4 | 4.323
328.15 K, x2 = 0.2552 | 1079.48 | 1574.8 | 4.147
328.15 K, x2 = 0.35 | 1077.27 | 1592.4 | 4
328.15 K, x2 = 0.4496 | 1074.29 | 1612.3 | 3.772
328.15 K, x2 = 0.5 | 1072.48 | 1621.7 | 3.605
328.15 K, x2 = 0.5566 | 1070.03 | 1631.3 | 3.364
328.15 K, x2 = 0.6422 | 1064.97 | 1644.8 | 2.895
328.15 K, x2 = 0.7532 | 1053.71 | 1659.9 | 2.143
328.15 K, x2 = 0.8516 | 1035.74 | 1660.2 | 1.427
328.15 K, x2 = 0.8714 | 1030.84 | 1656.2 | 1.288
328.15 K, x2 = 0.8856 | 1027.01 | 1652 | 1.191
328.15 K, x2 = 0.9 | 1022.85 | 1646.3 | 1.095
328.15 K, x2 = 0.9249 | 1014.98 | 1632.4 | 0.932
328.15 K, x2 = 0.9369 | 1010.86 | 1623.5 | 0.858
328.15 K, x2 = 0.9526 | 1005.16 | 1609.4 | 0.764
328.15 K, x2 = 0.9651 | 1000.35 | 1595.8 | 0.69
328.15 K, x2 = 0.9748 | 996.455 | 1583.8 | 0.637
328.15 K, x2 = 0.9906 | 989.833 | 1560.8 | 0.551
338.15 K, x2 = 0.0549 | 1070.16 | 1526.1 | 3.37
338.15 K, x2 = 0.1506 | 1069.05 | 1532.8 | 3.198
338.15 K, x2 = 0.2552 | 1067.4 | 1545 | 3.076
338.15 K, x2 = 0.35 | 1065.29 | 1562 | 2.973
338.15 K, x2 = 0.4496 | 1062.48 | 1581.5 | 2.81
338.15 K, x2 = 0.5 | 1060.76 | 1590.8 | 2.69
338.15 K, x2 = 0.5566 | 1058.45 | 1600.7 | 2.516
338.15 K, x2 = 0.6422 | 1053.71 | 1615.2 | 2.177
338.15 K, x2 = 0.7532 | 1043.28 | 1632.8 | 1.63
338.15 K, x2 = 0.8516 | 1026.75 | 1638.6 | 1.11
338.15 K, x2 = 0.8714 | 1022.24 | 1636.4 | 1.009
338.15 K, x2 = 0.8856 | 1018.73 | 1633.7 | 0.938
338.15 K, x2 = 0.9 | 1014.9 | 1629.8 | 0.867
338.15 K, x2 = 0.9249 | 1007.65 | 1619.7 | 0.749
338.15 K, x2 = 0.9369 | 1003.86 | 1613 | 0.695
338.15 K, x2 = 0.9526 | 998.592 | 1602.2 | 0.627
338.15 K, x2 = 0.9651 | 994.147 | 1591.6 | 0.574
338.15 K, x2 = 0.9748 | 990.543 | 1582 | 0.535
338.15 K, x2 = 0.9906 | 984.343 | 1563.7 | 0.473
